These results are taken from the NIST ThermoML archive (doi:10.1016/j.tca.2016.11.017).

Usually mass density stands for mass per unit of volume.

Each structure is given as a SMILES string. Numbers after ± are expanded uncertainties.

For series [1] the following is noted: for mass density: 103 K, 101.33 kPa, X-ray diffraction; for Normal melting temperature: DTA.
The nature of series [2]: Molar enthalpy of transition or fusion. To be noted: DSC.

For `CO[C@H](C(=O)[O-])c1ccccc1.C[C@H]([NH3+])C1CCCCC1`, the mass density in series [1] (Crystal) is 1149 ± 6 kg/m3. For the same molecule, the Normal melting temperature in series [1] (Crystal 1) was found to be 162.90 ± 0.5 °C; in series [1] (Crystal 2), 166.30 ± 0.5 °C. Also, the “Molar enthalpy of transition or fusion” value in series [2] (Crystal 1) is 7.31 ± 1.48 kcal/mol; in series [2] (Crystal 2), 9.16 ± 1.84 kcal/mol.
For the molecule `CO[C@H](C(=O)O)c1ccccc1` [(S)-2-methoxy-2-phenylacetic acid], in series [1] (Crystal), the mass density is given as 1311 ± 7 kg/m3 and the Normal melting temperature was found to be 69.30 ± 0.5 °C. In series [2] (Crystal), the “Molar enthalpy of transition or fusion” value was found to be 4.51 ± 0.908 kcal/mol.
For the molecule `CO[C@H](C(=O)[O-])c1ccccc1.C[C@@H]([NH3+])C1CCCCC1`, the Normal melting temperature in series [1] (Crystal) was 187.40 ± 0.5 °C. For the same molecule, in series [2] (Crystal), the “Molar enthalpy of transition or fusion” value is 10.9 ± 2.2 kcal/mol.
In the same order, the values of `COC(C(=O)O)c1ccccc1` (configuration not stated) [2-methoxy-2-phenylacetic acid] are 70.60 ± 0.5 °C and 6 ± 1.2 kcal/mol.
